Data as given in ChEMBL document CHEMBL1201862, “PubChem BioAssay data set” (2004).
Where “and” joins values, the source holds several entries; their conditions need not be identical. Identical values can stand only once. Calls of active or inactive are those of the source. Rule as the data show it, for most assays here: actives have a measured EC50 and inactives only a lower limit.

Assays:
[1] = viability of uninfected HEp-2 cells – cell-based, HTS, cytotoxicity control for RSV inhibitor project, dose response (AID 2410); assay type: functional; details: human respiratory syncytial virus
[2] = test system: Streptococcus sp. 'group A'; assay: Streptococcus pyogenes SK(-)GAS viability under kanamycin – luminescence, BacTiterGlo, confirmation, counter-screen for streptokinase expression inhibitor project, dose response (AID 1900); assay type: functional, organism-based
Streptokinase A = target: T1, Streptokinase A (Streptococcus pyogenes serotype M1, UniProt P10520); assay: viability-normalized secreted streptokinase activity reduction – plasminogen activation absorbance, OD405, dose response (AID 1914); assay type: functional, Streptococcus pyogenes M1 GAS;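 also: secreted streptokinase activity via plasminogen activation per viability signal from cell pellet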
T1 sequence (P10520 whole entry): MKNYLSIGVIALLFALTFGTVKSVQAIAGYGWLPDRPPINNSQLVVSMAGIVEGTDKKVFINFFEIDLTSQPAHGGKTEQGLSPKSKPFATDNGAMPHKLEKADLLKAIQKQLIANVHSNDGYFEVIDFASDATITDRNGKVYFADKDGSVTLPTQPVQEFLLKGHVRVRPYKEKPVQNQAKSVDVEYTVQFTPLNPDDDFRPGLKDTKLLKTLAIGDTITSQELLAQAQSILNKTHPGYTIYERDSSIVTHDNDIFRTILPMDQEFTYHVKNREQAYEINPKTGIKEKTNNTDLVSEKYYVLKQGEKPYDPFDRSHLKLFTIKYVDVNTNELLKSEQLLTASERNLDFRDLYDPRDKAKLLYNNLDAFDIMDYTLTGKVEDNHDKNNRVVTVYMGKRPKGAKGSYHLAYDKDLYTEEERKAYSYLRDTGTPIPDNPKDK

Streptococcus = assay: GAS UMAA2166 growth inhibition – luminescence, BacTiterGlo, counter-screen for streptokinase expression inhibitor project, dose response (AID 1915); assay type: functional, organism-based;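 also: potency for reduction of bacterial viability or growth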
[3] = Luminescence Cell-Based Dose Retest to Confirm Inhibitors of Cancer Stem Cells. [Related pubchem assays (depositor defined):AID2717, AID2721]; assay type: functional; details: Homo sapiens
[4] = Trypanosoma cruzi growth suppression in host cells – NIH3T3 host cells, beta-gal luminescence, confirmation (AID 2044); assay type: functional, cell-based;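 also: intracellular parasites grown in NIH/3T3 mouse fibroblasts as host cells; luminescent beta-galactosidase reporter signal from transgenic T. cruzi replicating inside host cells; inhibitors lower the luminescence signal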
[5] = NIH3T3 cell viability loss – ATP luminescence, mouse fibroblasts, counter-screen, dose response (AID 2010); assay type: functional, cell-based;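 also: cells exposed to compound for about 90 hours before reading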
Cytochrome P450 3A4 = Cytochrome P450 3A4 (Homo sapiens, UniProt P08684);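 also: CYP3A4 tested as one member of a cytochrome P450 panel screen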
Cytochrome P450 3A4, sequence (P08684 whole entry): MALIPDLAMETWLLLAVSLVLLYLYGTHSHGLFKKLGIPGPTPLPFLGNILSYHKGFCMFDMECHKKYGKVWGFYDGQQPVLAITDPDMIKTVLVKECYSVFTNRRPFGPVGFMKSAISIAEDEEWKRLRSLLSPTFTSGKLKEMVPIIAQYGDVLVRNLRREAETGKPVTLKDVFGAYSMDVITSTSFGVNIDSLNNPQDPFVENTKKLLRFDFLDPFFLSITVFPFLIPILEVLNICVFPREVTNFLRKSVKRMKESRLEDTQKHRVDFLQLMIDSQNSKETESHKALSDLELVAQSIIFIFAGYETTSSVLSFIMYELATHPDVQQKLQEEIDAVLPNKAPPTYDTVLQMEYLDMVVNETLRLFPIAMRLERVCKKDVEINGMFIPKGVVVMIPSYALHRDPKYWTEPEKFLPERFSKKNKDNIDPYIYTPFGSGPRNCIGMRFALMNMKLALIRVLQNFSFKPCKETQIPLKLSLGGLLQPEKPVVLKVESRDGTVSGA

Paired box protein Pax-8 = Paired box protein Pax-8 (Homo sapiens, UniProt Q06710); assay: PAX8 transcriptional activity inhibition in RMG-I – RMG-I cells, luciferase, cherry-pick, dose response (AID 687027); assay type: functional, cell-based;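 also: luciferase reporter driven by Pax8 target thyroperoxidase promoter measured by SteadyGlo luminescence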
Paired box protein Pax-8, sequence (Q06710 whole entry): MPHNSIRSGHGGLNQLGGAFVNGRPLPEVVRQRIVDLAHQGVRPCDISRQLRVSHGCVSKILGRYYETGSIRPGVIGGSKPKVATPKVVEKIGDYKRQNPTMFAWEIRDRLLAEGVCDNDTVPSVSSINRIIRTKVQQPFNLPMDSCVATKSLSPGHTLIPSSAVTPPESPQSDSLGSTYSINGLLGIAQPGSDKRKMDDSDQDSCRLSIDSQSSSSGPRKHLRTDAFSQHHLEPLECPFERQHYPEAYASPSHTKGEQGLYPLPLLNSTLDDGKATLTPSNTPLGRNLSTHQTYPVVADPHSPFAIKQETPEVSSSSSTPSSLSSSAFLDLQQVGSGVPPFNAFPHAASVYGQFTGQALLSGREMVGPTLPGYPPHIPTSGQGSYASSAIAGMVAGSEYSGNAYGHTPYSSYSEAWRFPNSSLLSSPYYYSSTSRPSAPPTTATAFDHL

Cc1ccc(Nc2cc(C)nc(-c3ccccc3O)n2)cc1
CC50 [1]: 14.6 µM (active)

Cc1nn(CC(=O)Nc2c(F)c(F)cc(F)c2F)c(=O)c2cccn12
EC50 [2]: > 150 µM (not active)
EC50 (Streptokinase A): > 150 µM (not active)
EC50 (Streptococcus): > 150 µM (not active)

CC12CCC3c4ccc(O)cc4CCC3C1CCC2=O (centres undefined)
CC50 [1]: 29.6 µM (active)

Cc1cccc(-n2cc(-c3ccccc3)c3c(N4CCOCC4)ncnc32)c1
AC50 [3]: 5.24 µM (active)

Cc1cc(C)c2c(C(C)(C)C)nn(-c3ccccc3)c2n1
EC50 [2]: 15.1 µM (active)
EC50 (Streptokinase A): 30.2 µM (active)
EC50 (Streptococcus): 15.7 µM (active)

Cc1ccc(CN2CCN(Cc3ccc(-n4cccn4)cc3C)CC2CCO)cc1 (centres undefined)
EC50 [4]: 0.651 µM (active)
EC50 [5]: > 30 µM (not active)

CC[C@H]1CC2CN3CCc4c([nH]c5c([C@H]6C[C@H]7[C@H](CC)CN(C)[C@@H](Cc8c6[nH]c6ccccc86)[C@H]7C(=O)OC)c(OC)ccc45)C(C(=O)OC)(C2)C13
AC50 [3]: 1.99 µM (active)

CC(=O)NNc1cccc(Cl)n1
AC50 [3]: > 195 µM (inactive)

COc1ccccc1CNc1ccnc(-c2ccccc2Cl)n1
AC50 (Cytochrome P450 3A4): 2.51 µM (inconclusive)

CCC1(C)Cc2ccccc2-c2nc(-c3ccccc3)oc(=O)c21 (centres undefined)
EC50 [2]: 14 µM (active)
EC50 (Streptokinase A): 13.2 µM (active)
EC50 (Streptococcus): > 150 µM (not active)

COC(=O)C1=CN(Cc2ccc(OC)c(OC)c2)C=C(C(=O)OC)C1c1cccc(O)c1
EC50 [4]: 0.311 µM (active)
EC50 [5]: > 60 µM (not active)

O=C(c1cccc(F)c1)N1CCN(c2cc(N3CCCCC3)c(F)cc2[N+](=O)[O-])CC1
CC50 [1]: 22.2 µM (active)

Cn1nnnc1Sc1ncnc2scc(-c3cccc4c3sc3ccccc34)c12
AC50 (Paired box protein Pax-8): 3.89 µM (active)
AC50 [3]: 1.25 µM (active)

O=C(Nc1ccccc1Cl)c1cccc(COc2cc(Cl)ccc2Cl)c1
CC50 [1]: > 50 µM (active)

COc1ccc(-c2nc3cnc(Nc4cccc(OC)c4)nc3n(Cc3cccs3)c2=O)cc1
AC50 (Cytochrome P450 3A4): 6.31 µM (inconclusive)

Cc1nn2c(N3CCN(C)CC3)cc(C(C)(C)C)nc2c1-c1ccccc1
EC50 [4]: 0.145 µM (active)
EC50 [5]: 4.77 µM (active)

O=Cc1ccc(Oc2cc(-c3ccccc3)nc(-c3ccccc3)n2)cc1
AC50 [3]: 3.14 µM (active)

COc1ccc(C)cc1NC(=O)CNC(c1ccccc1)c1ccccc1
EC50 [2]: 28.9 µM (active)
EC50 (Streptokinase A): > 150 µM (not active)
EC50 (Streptococcus): 96.1 µM (active)

Cc1cccc(NC(=O)c2[nH]cnc2C(=O)N[C@@H](Cc2ccccc2)C(=O)OC(C)(C)C)c1
EC50 [2]: 2.46 µM (active)
EC50 (Streptococcus): 3.87 µM (active)

COc1ccc2c(c1)CCC1=C2N=C(S)NC1c1ccc(N(C)C)cc1 (centres undefined)
EC50 [4]: 2.62 µM (active)
EC50 [5]: > 60 µM (not active)

CCCCCn1c(=O)[nH]c2cc(C(=O)NCCCN(C)Cc3ccccc3)ccc2c1=O
EC50 [4]: 0.911 µM (active)
EC50 [5]: > 60 µM (inconclusive)

CCC1CCc2sc(C(=O)NC3CCN(Cc4ccccc4)CC3)cc2C1 (centres undefined)
EC50 [4]: 0.48 µM (active)
EC50 [5]: 5.09 µM (active)

COc1ccc(NC(=O)N2CC3(CCN(C(=O)c4ccncc4)CC3)C2)cc1
AC50 (Cytochrome P450 3A4): 15.8 µM (inconclusive)

Cc1c(Cl)cnc(NC(=O)COC(=O)CCS(=O)(=O)c2ccccc2)c1Cl
AC50 (Cytochrome P450 3A4): 15.8 µM (inconclusive)

O=C(NCC1CCCO1)c1ccc([N+](=O)[O-])s1 (centres undefined)
EC50 [4]: 0.728 µM (active)
EC50 [5]: > 30 µM (not active)

Cc1ccc(CN2CCCC(C(=O)c3sccc3C)C2)o1 (centres undefined)
EC50 [4]: 0.719 µM (active)
EC50 [5]: > 60 µM (not active)

Nc1ncc2c(n1)-c1cc(Cl)ccc1SC2
EC50 [4]: 1.55 µM (active)
EC50 [5]: > 60 µM (not active)

COc1ccc(N2CCN(C(S)=Nc3cc(C)ccc3C)CC2)cc1
AC50 (Cytochrome P450 3A4): 3.16 µM (inconclusive)

CCN(CC(=O)Nc1ccc(S(=O)(=O)N2CCCCC2)cc1)Cc1ccccc1
CC50 [1]: 28 µM (active)

CC1=C(C(N)=O)C(c2cccnc2)n2nc(-c3cccc(C)c3)nc2N1 (centres undefined)
EC50 [4]: > 60 µM (not active)
EC50 [5]: > 60 µM (not active)

C[C@@H]1CN([C@H](C)CO)C(=O)c2cc(NC(=O)Nc3ccc(C(F)(F)F)cc3)ccc2O[C@@H](C)CCCCO[C@H]1CN(C)Cc1ccccc1
AC50 (Paired box protein Pax-8): 12.2 µM (active)

COc1ccc(/N=C2\SC(CC(=O)Nc3ccccc3F)C(=O)N2Cc2ccco2)cc1 (centres undefined)
CC50 [1]: 25.1 µM (active)

COc1ccc(CN2CCc3ccc(NC(=O)c4ccncc4)cc3C2)c(F)c1
EC50 [2]: > 150 µM (not active)
EC50 (Streptokinase A): > 150 µM (not active)
EC50 (Streptococcus): > 150 µM (not active)

CCN(CC(=O)Nc1c(C(=O)OC)[nH]c2ccc(C)cc12)c1ccc2c(c1)OCO2
CC50 [1]: > 50 µM (active)

Clc1ccc(-c2csc(N/N=C\c3cccnc3)n2)cc1
EC50 [4]: 1.84 µM (active)
EC50 [5]: > 60 µM (not active)

COc1ccc(Br)cc1C(=O)Nc1ccccc1N1CCN(C(=O)c2ccccc2)CC1
CC50 [1]: 29 µM (active)
EC50 [4]: 1.46 µM (active)
EC50 [5]: > 60 µM (not active)

CCN(CC)C(=O)N[C@H]1C[C@H]2c3cccc4[nH]cc(c34)C[C@@H]2N(C)C1
AC50 (Cytochrome P450 3A4): 10 µM (inconclusive)

S=C(Nc1ccccc1)Nc1nc2ccccc2n1CCOc1ccc(Br)cc1
AC50 [3]: 11.6 µM (active)

CCS(=O)(=O)N1Cc2ccccc2CC1C(=O)Nc1nnc(SCc2c(Cl)cccc2Cl)s1 (centres undefined)
AC50 (Paired box protein Pax-8): 34.9 µM (active)

COCCNC(=O)CCC1CCN(Cc2ccc(-c3ccccc3)cc2)CC1
EC50 [4]: 1.77 µM (active)
EC50 [5]: > 60 µM (not active)

CC(C)c1ccc(C(=O)NCCCN(C)C)cc1
EC50 [4]: 1.27 µM (active)
EC50 [5]: > 60 µM (not active)

CON(C)C(=O)c1nnc2c3ccccc3n(S(=O)(=O)c3ccc(C)cc3)c2n1
AC50 (Cytochrome P450 3A4): 3.98 µM (inconclusive) and 3.16 µM (inconclusive)

COc1ccc(/C=N/NC(=O)CCn2cnc(-c3ccccc3)c2-c2ccccc2)cc1OC
AC50 [3]: 0.404 µM (active)

CCCCn1c(=N)n(CC(=O)C(C)(C)C)c2ccccc21
EC50 [4]: 5.54 µM (active)
EC50 [5]: > 60 µM (not active)

C/C(=N\c1ccc(C)cc1C)c1sc2ccccc2c1O
CC50 [1]: 17.8 µM (active)

C=CCn1c2ccccc2c2nnc(SCc3nc(O)[nH]c3C(=O)CCCCC(=O)OCC)nc21
CC50 [1]: > 50 µM (active)

COC(=O)c1cc(=O)n(Cc2cccs2)/c(=N/c2ccccc2)s1
AC50 [3]: 5.15 µM (active)

O=c1c2ccc([N+](=O)[O-])cc2ncn1CCOc1ccc(Cl)cc1
EC50 [4]: 0.145 µM (active)
EC50 [5]: > 30 µM (not active)

C[C@H](CO)N1C[C@H](C)[C@@H](CN(C)S(=O)(=O)c2ccc(F)cc2)Oc2ccc(NC(=O)Nc3ccc(C(F)(F)F)cc3)cc2C1=O
AC50 [3]: 4.25 µM (active)

COc1ccccc1-c1c(C)nn2c(N)c(-c3ccccc3)cnc12
CC50 [1]: 24.2 µM (active)

COc1cccc2cc(-c3csc(CCn4nc(C)cc4C)n3)c(=O)oc12
CC50 [1]: 41.8 µM (active)

CC(=O)OC[C@@H]1O[C@H](CCO/N=C(\C)CCN2CCCc3nc(C)c(C)cc32)C=C[C@@H]1OC(C)=O
AC50 (Cytochrome P450 3A4): 3.98 µM (inconclusive)

O=C(Nc1cccc([N+](=O)[O-])c1)C12CC3CC(C1)CC(n1cnc([N+](=O)[O-])n1)(C3)C2
EC50 [4]: 0.102 µM (active)
EC50 [5]: > 60 µM (not active)

CN(C)Cc1c[nH]c2ccccc12 [GRAMINE]
AC50 (Cytochrome P450 3A4): 3.16 µM (inconclusive)
